Values quoted from earlier work in paper PMC8854719, “Phase 1A/1B dose-escalation and -expansion study to evaluate the safety, pharmacokinetics, food effects and antitumor activity of pamiparib in advanced solid tumours” (British Journal of Cancer, 2021).
Like-named read-outs stand apart in the source and are kept apart here.

What was measured:
[1] = cited from earlier work
ovarian cancer = conditions: Phase 2 studies, BRCAmut ovarian cancer after prior platinum-based chemotherapy; cited from earlier work
[2] = other monotherapy studies in advanced cancer (rucaparib: anaemia/decreased haemoglobin)
[3] = separate Phase 3 trials in ovarian cancer

Row | SMILES | Anaemia, Grade ≥3 [1, 2] | Anaemia, Grade ≥3 [1, 3] | Anaemia, any Grade [1, 3] | ORR (ovarian cancer)
1 | NC(=O)c1cccc2cn(-c3ccc([C@@H]4CCCNC4)cc3)nc12 [niraparib] | 24% | 25% | 50% | 28.0%
2 | O=C(c1cc(Cc2n[nH]c(=O)c3ccccc23)ccc1F)N1CCN(C(=O)C2CC2)CC1 [olaparib] | 17% | 19% | 44% | 31.1%
3 | CNCc1ccc(-c2[nH]c3cc(F)cc4c3c2CCNC4=O)cc1 [rucaparib] | 24.9% | 19% | 37% | 53.8%
